Measured values from ChEMBL document CHEMBL4152348, “Discovery of a Potent and Orally Bioavailable Cyclophilin Inhibitor Derived from the Sanglifehrin Macrocycle” (J Med Chem, 2018).
One block for each molecule: values may come before it.

Tests used:
[1] = Oral bioavailability in Sprague-Dawley rat at 10 mg/kg by HPLC/MS analysis; assay type: ADME, organism-based; details: in vivo
[2] = Clearance in Beagle dog at 1 mg/kg, iv or 5 mg/kg, po by HPLC/MS analysis; assay type: ADME, organism-based, Canis lupus familiaris; details: in vivo
[3] = Half life in human plasma at 2 uM up to 4 hrs by LC/MS/MS analysis; assay type: ADME, cell-free
[4] = Volume of distribution at steady state in Beagle dog at 1 mg/kg, iv or 5 mg/kg, po by HPLC/MS analysis; assay type: ADME, organism-based, Canis lupus familiaris; details: in vivo, read-out: Vdss
[5] = Half life in rat plasma at 2 uM up to 4 hrs by LC/MS/MS analysis; assay type: ADME, cell-free
[6] = Volume of distribution at steady state in Sprague-Dawley rat at 10 mg/kg, iv or 10 mg/kg, po by HPLC/MS analysis; assay type: ADME, organism-based; details: in vivo, read-out: Vdss
[7] = Oral bioavailability in Beagle dog at 5 mg/kg by HPLC/MS analysis; assay type: ADME, organism-based, Canis lupus familiaris; details: in vivo
[8] = Apparent permeability across basolateral to apical side in human Caco2 cells measured at 60 to 120 mins by LC/MS/MS analysis; assay type: ADME, cell-based; details: for Papp B→A: Caco-2, read-out: permeability; for permeability: Caco-2
[9] = Terminal half life in Sprague-Dawley rat at 10 mg/kg, iv or 10 mg/kg, po by HPLC/MS analysis; assay type: ADME, organism-based; details: in vivo, read-out: beta t1/2 (converted)
[10] = Apparent permeability across apical to basolateral side in human Caco2 cells measured at 60 to 120 mins by LC/MS/MS analysis; assay type: ADME, cell-based; details: for Papp A→B: Caco-2, read-out: permeability; for permeability: Caco-2
[11] = Clearance in Sprague-Dawley rat at 10 mg/kg, iv or 10 mg/kg, po by HPLC/MS analysis; assay type: ADME, organism-based; details: in vivo
[12] = Lipophilicity, log D of the compound at pH 7.4 after 30 mins by HPLC/UV analysis; assay type: physicochemical; details: buffer
[13] = Terminal half life in Beagle dog at 1 mg/kg, iv or 5 mg/kg, po by HPLC/MS analysis; assay type: ADME, organism-based, Canis lupus familiaris; details: in vivo, read-out: beta t1/2 (converted)
[14] = Half life in dog plasma at 2 uM up to 4 hrs by LC/MS/MS analysis; assay type: ADME, cell-free, Canis lupus familiaris
[15] = Aqueous solubility of the compound at pH 7.2; assay type: physicochemical
[16] = Terminal half life in Sprague-Dawley rat at 1 mg/kg, iv or 5 mg/kg, po by HPLC/MS analysis; assay type: ADME, organism-based; details: in vivo, read-out: beta t1/2 (converted)
[17] = Clearance in Sprague-Dawley rat at 1 mg/kg, iv or 5 mg/kg, po by HPLC/MS analysis; assay type: ADME, organism-based; details: in vivo
[18] = Oral bioavailability in Sprague-Dawley rat at 5 mg/kg by HPLC/MS analysis; assay type: ADME, organism-based; details: in vivo
[19] = Volume of distribution at steady state in Sprague-Dawley rat at 1 mg/kg, iv or 5 mg/kg, po by HPLC/MS analysis; assay type: ADME, organism-based; details: in vivo, read-out: Vdss

SMILES: CC(C)[C@@H]1NC(=O)C/C=C/c2cc3cc(ccc3cn2)[C@@H](C)OC(=O)[C@@H]2CCCN(N2)C(=O)[C@H](C)NC1=O
- half-life at 2 µM [3]: 9.32 h
- half-life at 2 µM [5]: 0.133 h
- bioavailability [7]: 8%
- Papp B→A [8]: 13 ×10⁻⁶ cm/s
- Papp A→B [10]: 0.32 ×10⁻⁶ cm/s
- logD at 0.5 h [12]: 1.1
- half-life at 2 µM [14]: 6.95 h

SMILES: CC(C)[C@@H]1OC(=O)C(C)(C)/C=C/c2cc3cc(ccc3cn2)[C@@H](C)NC(=O)[C@@H]2CCCN(N2)C(=O)[C@H](C)NC1=O
- half-life at 2 µM [3]: > 25 h
- half-life at 2 µM [5]: 9.4 h
- Papp B→A [8]: 7.9 ×10⁻⁶ cm/s
- Papp A→B [10]: 0.1 ×10⁻⁶ cm/s
- logD at 0.5 h [12]: 2
- half-life at 2 µM [14]: 12.2 h

SMILES: CO[C@H]1C(=O)N[C@@H](C(C)C)C(=O)N[C@@H](C)C(=O)N2CCC[C@H](N2)C(=O)O[C@H](C)c2cccc(c2)/C=C/CC[C@H]1C
- half-life at 2 µM [3]: > 25 h
- half-life at 2 µM [5]: 0.0833 h
- Papp B→A [8]: 31 ×10⁻⁶ cm/s
- Papp A→B [10]: 12 ×10⁻⁶ cm/s
- logD at 0.5 h [12]: 2.9
- half-life at 2 µM [14]: 10 h

SMILES: CC(C)[C@@H]1NC(=O)C/C=C/c2ccc3ccc(cc3c2)[C@@H](C)OC(=O)[C@@H]2CCCN(N2)C(=O)[C@H](C)NC1=O
- half-life at 2 µM [3]: > 25 h
- Papp B→A [8]: 38 ×10⁻⁶ cm/s
- Papp A→B [10]: 6.2 ×10⁻⁶ cm/s
- logD at 0.5 h [12]: 2.5
- half-life at 2 µM [14]: > 25 h

SMILES: CC(C)[C@@H]1NC(=O)C(C)(C)/C=C/c2ccc3ccc(nc3c2)[C@@H](C)OC(=O)[C@@H]2CCCN(N2)C(=O)[C@H](C)NC1=O
- half-life at 2 µM [3]: 17.1 h
- half-life at 2 µM [5]: 0.25 h
- solubility [15]: < 6 µg/mL
- Papp B→A [8]: 21 ×10⁻⁶ cm/s
- Papp A→B [10]: 2 ×10⁻⁶ cm/s
- logD at 0.5 h [12]: 2.7
- half-life at 2 µM [14]: > 25 h

SMILES: CC(C)[C@@H]1NC(=O)C/C=C/c2ccc3ccc(nc3c2)[C@@H](C)OC(=O)[C@@H]2CCCN(N2)C(=O)[C@H](C)NC1=O
- half-life at 2 µM [3]: 8.87 h
- Papp B→A [8]: 3.5 ×10⁻⁶ cm/s
- Papp A→B [10]: 1.2 ×10⁻⁶ cm/s
- logD at 0.5 h [12]: 2.1
- half-life at 2 µM [14]: > 25 h

SMILES: CC(C)[C@@H]1OC(=O)C(CO)(CO)/C=C/c2ccc3ccc(nc3c2)[C@@H](C)NC(=O)[C@@H]2CCCN(N2)C(=O)[C@H](C)NC1=O
- Papp B→A [8]: 0.59 ×10⁻⁶ cm/s
- Papp A→B [10]: 0.08 ×10⁻⁶ cm/s
- logD at 0.5 h [12]: 1

SMILES: CO[C@@H]1/C=C/c2cc3cc(ccc3cn2)[C@@H](C)OC(=O)[C@@H]2CCCN(N2)C(=O)[C@H](C)NC(=O)[C@H](C(C)C)NC(=O)[C@@H]1C
- half-life at 2 µM [3]: 12.5 h
- half-life at 2 µM [5]: 0.0833 h
- Papp B→A [8]: 37 ×10⁻⁶ cm/s
- Papp A→B [10]: 4.4 ×10⁻⁶ cm/s
- logD at 0.5 h [12]: 2.1
- half-life at 2 µM [14]: 17.4 h

SMILES: CC(C)[C@@H]1NC(=O)C(C)(C)/C=C/c2cc3cc(ccc3cn2)[C@@H](C)OC(=O)[C@@H]2CCCN(N2)C(=O)[C@H](C)NC1=O
- half-life at 2 µM [3]: > 25 h
- solubility [15]: < 6 µg/mL
- Papp B→A [8]: 34 ×10⁻⁶ cm/s
- Papp A→B [10]: 2.3 ×10⁻⁶ cm/s
- logD at 0.5 h [12]: 2.1
- half-life at 2 µM [14]: > 25 h

SMILES: CC(C)[C@@H]1NC(=O)CC/C=C/c2cc3cc(ccc3cn2)[C@@H](C)OC(=O)[C@@H]2CCCN(N2)C(=O)[C@H](C)NC1=O
- half-life at 2 µM [3]: > 25 h
- half-life at 2 µM [5]: 0.133 h
- Papp B→A [8]: 25 ×10⁻⁶ cm/s
- Papp A→B [10]: 0.33 ×10⁻⁶ cm/s
- logD at 0.5 h [12]: 1.6
- half-life at 2 µM [14]: > 25 h

More lines, now with the values ahead:

- bioavailability [1]: 100%
- clearance [2]: 1.33 mL/min/kg
- half-life at 2 µM [3]: > 25 h
- Vd [4]: 2.3 L/kg
- half-life at 2 µM [5]: > 25 h
- Vd [6]: 12 L/kg
- bioavailability [7]: 55%
- Papp B→A [8]: 13 ×10⁻⁶ cm/s
- half-life [9]: 24 h
- Papp A→B [10]: 1.5 ×10⁻⁶ cm/s
- clearance [11]: 7 mL/min/kg
- logD at 0.5 h [12]: 2.2
- half-life [13]: 25 h
- half-life at 2 µM [14]: > 25 h
SMILES: CC(C)[C@@H]1OC(=O)C2(/C=C/c3ccc4ccc(nc4c3)[C@@H](C)NC(=O)[C@@H]3CCCN(N3)C(=O)[C@H](C)NC1=O)COCOC2

- Papp B→A [8]: 19 ×10⁻⁶ cm/s
- Papp A→B [10]: 3.2 ×10⁻⁶ cm/s
- logD at 0.5 h [12]: 2.4
SMILES: CC(C)[C@@H]1OC(=O)C2(/C=C/c3ccc4ccc(nc4c3)[C@@H](C)NC(=O)[C@@H]3CCCN(N3)C(=O)[C@H](C)NC1=O)CCOCC2

- Papp B→A [8]: 9.2 ×10⁻⁶ cm/s
- Papp A→B [10]: 0.61 ×10⁻⁶ cm/s
- logD at 0.5 h [12]: 1.9
SMILES: CC(C)[C@@H]1OC(=O)C2(/C=C/c3ccc4ccc(nc4c3)[C@@H](C)NC(=O)[C@@H]3CCCN(N3)C(=O)[C@H](C)NC1=O)CCC(O)CC2 (stereo in doubt; 47)

- Papp B→A [8]: 10 ×10⁻⁶ cm/s
- Papp A→B [10]: 0.72 ×10⁻⁶ cm/s
- logD at 0.5 h [12]: 2.1
SMILES: CC(C)[C@@H]1OC(=O)C2(/C=C/c3ccc4ccc(nc4c3)[C@@H](C)NC(=O)[C@@H]3CCCN(N3)C(=O)[C@H](C)NC1=O)COCCOC2

- permeability [8]: 7.1 ×10⁻⁶ cm/s
- permeability [10]: 0.9 ×10⁻⁶ cm/s
SMILES: CC(C)[C@@H]1OC(=O)C2(/C=C/c3ccc4ccc(nc4c3)[C@@H](C)NC(=O)[C@@H]3CCCN(N3)C(=O)[C@H](C)NC1=O)CCC(O)CC2 (stereo in doubt; 48)

- Papp B→A [8]: 12 ×10⁻⁶ cm/s
- Papp A→B [10]: 0.48 ×10⁻⁶ cm/s
- logD at 0.5 h [12]: 1.9
SMILES: CC(C)[C@@H]1OC(=O)C2(/C=C/c3ccc4ccc(nc4c3)[C@@H](C)NC(=O)[C@@H]3CCCN(N3)C(=O)[C@H](C)NC1=O)CCS(=O)(=O)CC2

- Papp B→A [8]: 33 ×10⁻⁶ cm/s
- Papp A→B [10]: 13 ×10⁻⁶ cm/s
- logD at 0.5 h [12]: 3.1
SMILES: CO[C@H]1CC[C@@]2(/C=C/c3ccc4ccc(nc4c3)[C@@H](C)NC(=O)[C@@H]3CCCN(N3)C(=O)[C@H](C)NC(=O)[C@H](C(C)C)OC2=O)CC1

- half-life [16]: 3.9 h
- clearance [2]: 6 mL/min/kg
- half-life at 2 µM [3]: > 25 h
- Vd [4]: 3.9 L/kg
- half-life at 2 µM [5]: 6.87 h
- bioavailability [7]: 100%
- clearance [17]: 10.8 mL/min/kg
- permeability [8]: 47 ×10⁻⁶ cm/s
- permeability [10]: 17 ×10⁻⁶ cm/s
- logD at 0.5 h [12]: 3.2
- half-life [13]: 10 h
- bioavailability [18]: 90%
- Vd [19]: 2.5 L/kg
- half-life at 2 µM [14]: > 25 h
SMILES: CC(C)[C@@H]1OC(=O)C(C)(C)/C=C/c2ccc3ccc(nc3c2)[C@@H](C)NC(=O)[C@@H]2CCCN(N2)C(=O)[C@H](C)NC1=O
